According to patent US4436733A, “4"- And 3-ester derivatives of DMT and DMOT” (Eli Lilly and Company, priority 1982, dated 1984):
Like-named read-outs stand apart in the source and are kept apart here.

Assays:
[1] = system: Staphylococcus aureus S13E; test: standard agar-dilution assay, MIC; type: cell-based
Procedure: (§1) The MIC's in Table III were determined by standard agar-dilutionassays. The MIC's in Table IV were obtained using a conventional broth-dilution microtiter test.

[2] = system: Staphylococcus aureus X1.1; test: standard agar-dilution assay, MIC; type: cell-based
Procedure: as §1

[3] = system: Staphylococcus epidermidis EPI1; test: standard agar-dilution assay, MIC; type: cell-based
Procedure: as §1

[4] = system: Staphylococcus epidermidis EPI2; test: standard agar-dilution assay, MIC; type: cell-based
Procedure: as §1

Streptococcus Group 9960 = test: standard agar-dilution assay, MIC; type: cell-based
Procedure: as §1

[5] = system: Streptococcus Group D X66; test: standard agar-dilution assay, MIC; type: cell-based
Procedure: as §1

[6] = system: Streptococcus pneumoniae Park I; test: standard agar-dilution assay, MIC; type: cell-based
Procedure: as §1

[7] = system: Streptococcus pyogenes C203; test: standard agar-dilution assay, MIC; type: cell-based
Procedure: as §1

[8] = system: Staphylococcus aureus V41; test: standard agar-dilution assay, MIC; type: cell-based; details: Staphylococcus aureus V41, penicillin resistant strain
Procedure: as §1
^b Penicillinresistant strain

[9] = system: Staphylococcus aureus X400; test: standard agar-dilution assay, MIC; type: cell-based; details: Staphylococcus aureus X400, methicillin resistant strain
Procedure: as §1
^c Methicillinresistant-strain

[10] = system: Haemophilus influenzae Holt; test: standard agar-dilution assay, MIC; type: cell-based; details: ampicillin sensitive strain
Procedure: as §1
^d Ampicillinsensitive strain

[11] = system: Haemophilus influenzae R252; test: standard agar-dilution assay, MIC; type: cell-based; details: Haemophilus influenzae R252, ampicillin resistant strain
Procedure: as §1
^e Ampicillinresistant strain

Mycoplasma gallisepticum = test: conventional broth-dilution microtiter test, MIC; type: cell-based
Procedure: as §1

Mycoplasma hyorhinis = test: conventional broth-dilution microtiter test, MIC; type: cell-based
Procedure: as §1

Mycoplasma synoviae = test: conventional broth-dilution microtiter test, MIC; type: cell-based
Procedure: as §1

[12] = system: Pasteurella multocida 17E; test: conventional broth-dilution microtiter test, MIC; type: cell-based; details: bovine isolate
Procedure: as §1

[13] = system: Pasteurella multocida 60A; test: conventional broth-dilution microtiter test, MIC; type: cell-based; details: avian isolate
Procedure: as §1

Staphylococcus aureus = test: conventional broth-dilution microtiter test, MIC; type: cell-based
Procedure: as §1

Streptococcus sp. 80 = test: conventional broth-dilution microtiter test, MIC; type: cell-based
Procedure: as §1

[14] = system: Streptococcus pyogenes C203; test: experimental bacterial infection in mice, ED50; type: in vivo; details: doses given 1 and 5 hours postinfection, read-out: ED50 (effective dose to protect 50% of the test animals)
Procedure: The ester derivatives of this invention have shown in vivo antimicrobial activity against experimental bacterial infections caused by gram-positivebacteria. When two doses of test compound were administered to mice with experimental infections, the activity observed was measured as an ED50 value [effective dose in mg/kg to protect 50% of the test animals: see Warren Wick, et al., J. Bacteriol. 81, 233-235 (1961)].
^a mg/kg × 2; doses given 1 and 5 hours postinfection

Compound	MIC (minimal inhibitory concentration) [1]	MIC (minimal inhibitory concentration) [2]	MIC (minimal inhibitory concentration) [3]	MIC (minimal inhibitory concentration) [4]	MIC (minimal inhibitory concentration) (Streptococcus Group 9960)	MIC (minimal inhibitory concentration) [5]	MIC (minimal inhibitory concentration) [6]	MIC (minimal inhibitory concentration) [7]	MIC (minimal inhibitory concentration) [8]	MIC (minimal inhibitory concentration) [9]	MIC (minimal inhibitory concentration) [10]	MIC (minimal inhibitory concentration) [11]	MIC (minimal inhibitory concentration) (Mycoplasma gallisepticum)	MIC (minimal inhibitory concentration) (Mycoplasma hyorhinis)	MIC (minimal inhibitory concentration) (Mycoplasma synoviae)	MIC (minimal inhibitory concentration) [12]	MIC (minimal inhibitory concentration) [13]	MIC (minimal inhibitory concentration) (Staphylococcus aureus)	MIC (minimal inhibitory concentration) (Streptococcus sp. 80)	other results
CCC(=O)OC1C(C)OC(OC2C(C)OC(OC3C(CC=O)CC(C)C(=O)C=CC(C)=CC(COC(=O)C(Cl)(Cl)Cl)C(CC)OC(=O)CC(O)C3C)C(OC(C)=O)C2N(C)C)CC1(C)O (stereo not shown) [Compound 14, 2'-O-Acetyl-4"-O-Propionyl-23-O-Trichloroacetyl-DMT]	1	0.5	0.5	2	1	2	0.125	0.5	1	2	8	8	0.39	6.25	0.195	12.5	25	1.56	1.56	–
CCC1OC(=O)CC(OC(=O)C(Cl)(Cl)Cl)C(C)C(OC2OC(C)C(OC3CC(C)(O)C(OC(=O)C(Cl)(Cl)Cl)C(C)O3)C(N(C)C)C2OC(C)=O)C(CC=O)CC(C)C(=O)C=CC(C)=CC1COC(=O)C(Cl)(Cl)Cl (stereo not shown) [Compound 13, 2'-O-acetyl-3,23,4"-tri-O-trichloroacetyl-DMT]	8	8	8	16	16	16	2	8	16	16	128	128	–	–	–	–	–	–	–	–
CCC(=O)OC1C(C)OC(OC2C(C)OC(OC3C(CC=O)CC(C)C(=O)C=CC(C)=CC(CO)C(CC)OC(=O)CC(O)C3C)C(O)C2N(C)C)CC1(C)O (stereo not shown) [Compound 16, 4"-O-Propionyl-DMT]	0.5	0.5	0.5	1	0.5	0.5	0.06	0.125	0.5	1	4	2	–	–	–	–	–	–	–	–
CCC1OC(=O)CC(O)C(C)C(OC2OC(C)C(OC3CC(C)(O)C(OC(=O)C(Cl)(Cl)Cl)C(C)O3)C(N(C)C)C2OC(C)=O)C(CC=O)CC(C)C(=O)C=CC(C)=CC1COC(=O)C(Cl)(Cl)Cl (stereo not shown) [Compound 11, 2'-O-acetyl-23,4"-di-O-trichloroacetyl-DMT]	4	4	2	4	4	4	0.25	2	8	8	32	16	–	–	–	–	–	–	–	–
CCC(=O)OCC1C=C(C)C=CC(=O)C(C)CC(CC=O)C(OC2OC(C)C(OC3CC(C)(O)C(OC(=O)CC)C(C)O3)C(N(C)C)C2O)C(C)C(OC(=O)CC)CC(=O)OC1CC (stereo not shown) [Compound 10, 3,23,4"-Tri-O-Propionyl-DMT]	0.5	0.5	1	2	1	1	0.125	0.25	1	1	–	–	≤ 0.05	0.78	0.39	25	50	1.56	1.56	ED50 ([14]; C203, mice, oral): > 150 mg/kg; ED50 ([14]; C203, sc, mice, subcutaneous): 13 mg/kg
CCC1OC(=O)CC(O)C(C)C(OC2OC(C)C(OC3CC(C)(O)C(OC(=O)CC(C)C)C(C)O3)C(N(C)C)C2OC(C)=O)C(CC=O)CC(C)C(=O)C=CC(C)=CC1C (stereo not shown) [Compound 18, 2'-O-Acetyl-4"-O-Isovaleryl-DMOT]	1	1	1	2	1	1	0.06	0.5	1	1	32	32	0.39	0.78	–	12.5	> 50	0.78	0.39	–
CCC(=O)OC1CC(=O)OC(CC)C(COC(=O)C(Cl)(Cl)Cl)C=C(C)C=CC(=O)C(C)CC(CC=O)C(OC2OC(C)C(OC3CC(C)(O)C(OC(=O)CC)C(C)O3)C(N(C)C)C2OC(C)=O)C1C (stereo not shown) [Compound 15, 2'-O-Acetyl-3,4"-Di-O-Propionyl-23-O-Trichloroacetyl-DMT]	0.5	0.5	0.5	1	1	2	0.06	0.5	1	1	64	32	0.39	3.12	0.39	50	50	1.56	1.56	–
CCC(=O)OC1CC(=O)OC(CC)C(C)C=C(C)C=CC(=O)C(C)CC(CC=O)C(OC2OC(C)C(OC3CC(C)(O)C(OC(=O)CC)C(C)O3)C(N(C)C)C2OC(C)=O)C1C (stereo not shown) [Compound 23, 2'-O-Acetyl-3,4"-Di-O-Propionyl-DMOT]	0.5	0.5	0.5	1	1	1	0.06	0.5	1	1	–	–	0.39	1.56	3.12	50	> 50	1.56	1.56	ED50 ([14]; C203, mice, oral): > 100 mg/kg; ED50 ([14]; C203, sc, mice, subcutaneous): > 30 mg/kg
CCC1OC(=O)CC(OC(=O)C(Cl)(Cl)Cl)C(C)C(OC2OC(C)C(OC3CC(C)(O)C(O)C(C)O3)C(N(C)C)C2OC(C)=O)C(CC=O)CC(C)C(=O)C=CC(C)=CC1COC(=O)C(Cl)(Cl)Cl (stereo not shown) [Compound 12, 2'-O-acetyl-3,23-di-O-trichloroacetyl-DMT]	1	1	1	2	2	2	0.125	0.5	2	2	32	16	–	–	–	–	–	–	–	–
